# Results reported in US20260297031A1, “HYDROXYLAMINE-BASED BCR-ABL1 INHIBITORS FOR TREATMENT OF CANCER” (University of Georgia Research Foundation, Inc., priority 2023, published 2026).
# Key:
# BCR-ABL1 wt = molecular target: T1, BCR-ABL1 wt (Homo sapiens, UniProt P00519); assay: KinaseProfiler radiometric kinase assay, BCR-ABL1 wt; assay type: biochemical; settings: [ATP] = 10 μM; mean of n = 2
# T1 construct: called BCR-ABL1 in the text
# Aqueous solubility = assay: Aqueous solubility
# Experimental: Solubility Determinations (Independently Performed by Pharmaron Inc., Ninqbo, CN)
# Test compounds and control compounds (progesterone or diclofenac) were initially prepared as 10 mM DMSO stock solutions. […] After such time, plugs and stir sticks were removed and the samples from the solubility sample plate were transferred into the filter plate. All the samples were then filtered and 5 μL of filtrate was taken and added along with 5 μL of DMSO and 490 μL of a 1:1 (v/v) mixture of H2O and acetonitrile containing internal standard (100 nM alprazolam, 200 nM Caffeine and 100 nM tolbutamide) to the plate yielding a final concentration of 3 μM. The samples were then analyzed by LC-MS and diluted according to the peak shape with ultrapure water.
# Filtrate was analyzed and quantified against a standard of known concentration using LC coupled with MS peak identification and quantitation. Solubility values of test compounds and progesterone were calculated as follows and are presented as the mean of n=2 replicates: […]
# MDCKII-MDR1 cells = assay: MDCKII-MDR1 permeability
# Experimental: MDCKII-MDR1 Permeability (Independently Performed By: Pharmaron Inc., Ninqbo, CN)
# To each well of the Transwell insert and reservoir were added 50 μL and 25 mL of cell culture medium, respectively.
# To determine the rate of drug transport in the apical to basolateral direction, 125 μL of the working solution of either test compounds or control compounds was added to the Transwell insert (apical compartment) and a 50 μL sample was immediately transferred from the apical compartment to 200 μL of acetonitrile containing internal standard (100 nM alprazolam, 200 nM caffeine, and 100 nM tolbutamide) in a new 96-well plate as the initial donor sample (A-B). The sample was then vortexed at 1,000 rpm for 10 min. The receiver plate (basolateral compartment) wells were then filled with 235 μL transport buffer. To determine the rate of drug transport in the basolateral to apical direction, 285 μL of the working solution of either test compounds or control compounds was added to the receiver plate (basolateral compartment) wells and a 50 μL of sample was immediately transferred from the basolateral compartment to 200 μL of acetonitrile containing internal standard in a new 96-well plate as the initial donor sample (B-A). The sample was vortexed for 10 min at 1,000 rpm. The Transwell insert (apical compartment) was then filled with 75 μL of transport buffer and the apical to basolateral direction and the basolateral to apical direction were done at the same time. […] After incubation, 50 μL samples from donor sides (apical compartment for Ap→BI flux, and basolateral compartment BI→Ap) and receiver sides (basolateral compartment for Ap→BI flux, and apical compartment for BI→Ap) were transferred to wells of a new 96-well plate, followed by the addition of 200 μL acetonitrile containing internal standard. […] An aliquot of 100 μL of the supernatant was mixed with an appropriate volume of ultra-pure water before LC-MS/MS analysis.
# To monitor for monolayer integrity, Lucifer yellow leakage was determined after the 2 h transport period. This began by preparing a stock solution of Lucifer yellow in DMSO and diluted with HBSS (10 mM HEPES, pH 7.4.) to reach a final concentration of 100 μM. To each Transwell insert (apical compartment) was then added 100 μL of the Lucifer yellow solution, followed by filling the wells in the receiver plate (basolateral compartment) with 300 μL of HBSS (10 mM HEPES, pH 7.4).
# The efflux ratio was determined using the following equation: […]
# mutant BCR-ABL1 = assay: KinaseProfiler radiometric kinase assay, mutant BCR-ABL1 kinases as a group; assay type: biochemical, human; settings: for IC50: read-out: IC50 against (imatinib resistant / relevant) mutant BCR-ABL1 kinases, group of mutants
# From the text: Biochemical Human RTK Kinase Enzymatic Radiometric Assay, KinaseProfiler (Independently Performed by Eurofins Cerep SA, FR)
# [1] = Metabolic stability in rat hepatocytes; assay type: in vitro ADME; settings: rat hepatocytes
# Experimental: All calculations were carried out using Microsoft Excel. Peak areas were determined from extracted ion chromatograms.
# [2] = Plasma protein binding by equilibrium dialysis, mouse plasma; assay type: in vitro ADME, mouse (CD-1); settings: 360 min, 5 µM
# Experimental: Plasma Protein Binding by Equilibrium Dialysis (Independently Performed by Pharmaron Inc., Ninqbo, CN)
# Initially, 1 mM solutions of test compounds and the control compound (Ketoconzaole) were prepared in DMSO. After this, dialysis membranes were soaked in ultrapure water for 60 min to separate strips, followed by 20% aq. ethanol for 20 min, and finally in a dialysis buffer for 20 min. […] After this, 597 μL of blank plasma solution followed by 3 μL of the working solutions of either test compounds or control compound were added to a new plastic plate or separate plastic tube and the solutions were vortexed at 1,000 rpm for 2 min. Immediately after this, 50 μL of spiked plasma solution suspension was transferred to a 96-well plate to act as T=0 control. The remaining samples were treated in the same manner, whereby all remaining spiked plasma solutions were added to the incubator for the duration of the study.
# Cells were then loaded with 120 μL of the plasma samples and dialyzed against an equal volume of dialysis buffer (PBS). […] The samples were analyzed by LC-MS/MS and 100 μL of distilled water was added to each sample prior to analysis.
# Concentrations of test compounds and control compound in buffer and plasma solution chambers was determined and percentages of test compounds and control compound bound using the following equations (mean of n=2 replicates): […]
# T1 sequence (P00519 whole entry): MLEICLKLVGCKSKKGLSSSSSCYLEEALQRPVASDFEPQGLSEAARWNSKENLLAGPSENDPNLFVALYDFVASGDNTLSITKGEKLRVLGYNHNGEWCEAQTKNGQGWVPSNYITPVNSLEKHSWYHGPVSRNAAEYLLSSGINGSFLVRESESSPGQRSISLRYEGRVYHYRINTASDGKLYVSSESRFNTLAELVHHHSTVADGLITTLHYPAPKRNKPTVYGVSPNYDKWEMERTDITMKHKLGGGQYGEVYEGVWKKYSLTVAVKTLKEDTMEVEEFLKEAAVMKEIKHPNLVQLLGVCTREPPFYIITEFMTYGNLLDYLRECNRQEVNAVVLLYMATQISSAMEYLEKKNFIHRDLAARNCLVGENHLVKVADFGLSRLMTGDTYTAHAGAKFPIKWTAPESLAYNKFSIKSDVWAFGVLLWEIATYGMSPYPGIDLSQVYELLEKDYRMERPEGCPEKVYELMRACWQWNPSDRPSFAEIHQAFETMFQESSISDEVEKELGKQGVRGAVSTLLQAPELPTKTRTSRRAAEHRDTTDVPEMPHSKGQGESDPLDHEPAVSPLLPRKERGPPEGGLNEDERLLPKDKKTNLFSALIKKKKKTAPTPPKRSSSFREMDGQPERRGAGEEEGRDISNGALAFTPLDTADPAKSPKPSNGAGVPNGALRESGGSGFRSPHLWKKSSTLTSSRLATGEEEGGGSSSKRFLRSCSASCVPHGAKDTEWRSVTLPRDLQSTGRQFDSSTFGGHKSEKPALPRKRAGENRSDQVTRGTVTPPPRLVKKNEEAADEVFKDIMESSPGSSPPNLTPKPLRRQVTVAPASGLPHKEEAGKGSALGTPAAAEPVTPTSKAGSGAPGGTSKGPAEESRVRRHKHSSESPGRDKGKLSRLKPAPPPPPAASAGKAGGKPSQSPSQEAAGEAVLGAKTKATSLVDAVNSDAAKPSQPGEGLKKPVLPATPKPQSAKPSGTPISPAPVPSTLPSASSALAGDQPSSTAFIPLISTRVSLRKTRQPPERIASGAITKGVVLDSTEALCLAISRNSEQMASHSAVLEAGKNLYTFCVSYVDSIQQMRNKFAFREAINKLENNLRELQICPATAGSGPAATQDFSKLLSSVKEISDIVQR
smiles,measurement,setting,value
"COc1cc(Nc2c(C#N)cnc3cc(OCCON4CCN(C)CC4)c(OC)cc23)c(F)cc1Cl [Compound 15, 4-((4-chloro-2-fluoro-5-methoxyphenyl)amino)-6-methoxy-7-(2-((4-methylpiperazin-1-yl)oxy)ethoxy)quinoline-3-carbonitrile]",IC50,BCR-ABL1 wt,1 nM
same,solubility kinetic at 2 h,"Aqueous solubility; phosphate buffer, pH 7.4, aqueous buffer",43 µM
same,"efflux (P-gp), in words",MDCKII-MDR1 cells; MDCKII-MDR1,no further improvement in drug efflux was seen
same,"BCR-ABL1 kinase activity, in words",mutant BCR-ABL1,single-digit nanomolar biochemical activity
same,IC50,mutant BCR-ABL1,< 1 nM
same,half-life,[1],12.3 min
same,hepatocyte CLint,[1]; read-out: HEPCIint (rate of metabolism),113 µL/min/1e6 cells
"COc1cc2c(Nc3cccc(OC)c3Cl)c(C#N)cnc2cc1OCCON1CCN(C)CC1 [Compound 17, 4-((2-Chloro-3-methoxyphenyl)amino)-6-methoxy-7-(2-((4-methylpiperazin-1-yl)oxy)ethoxy)quinoline-3-carbonitrile]","solubility, in words",Aqueous solubility,high aqueous solubility at pH 7.4
same,"efflux (P-gp), in words",MDCKII-MDR1 cells; MDCKII-MDR1,greatly reduced efflux ratio
same,fold enhancement in permeability,"MDCKII-MDR1 cells; MDCKII-MDR1, relative to bosutinib",31 -fold
same,IC50,mutant BCR-ABL1,≥ 15 nM
same,% Unbound,[2],11.93%
"COc1cc(Cl)ccc1Nc1c(C#N)cnc2cc(OCCON3CCN(C)CC3)c(OC)cc12 [Compound 20, 4-((4-Chloro-2-methoxyphenyl)amino)-6-methoxy-7-(2-((4-methylpiperazin-1-yl)oxy)ethoxy)quinoline-3-carbonitrile]","efflux (P-gp), in words",MDCKII-MDR1 cells; MDCKII-MDR1,reduced efflux ratios
same,"permeability in MDCKII-MDR1 cells, in words",MDCKII-MDR1 cells; MDCKII-MDR1,markedly improved permeability
same,% Unbound,[2],9.71%
